The values that follow come from US8497293B2, “Haloalkylsubstituted aryloxyalkylimidazolines for use as pesticides” (Syngenta Crop Protection LLC, priority 2007, dated 2013).

Data set [1] has as its system Myzus persicae (Green Peach Aphid). Nature of the data set: Myzus persicae pea seedling root (systemic) test. The note with it: 144 h, read-out: control (mortality). In kind it is in vivo. An excerpt:
Roots of pea seedlings, infested with an aphid population of mixed ages, were placed directly in the test solutions of 24 ppm. 6 days after introduction, samples were checked for mortality. The following compounds gave 100% control: 1.001, 1.003, 1.016, 1.021, 1.022 and 1.024. The following compounds gave 80% control: 1.005, 1.019, 1.020 and 1.023.

For data set [2], the system named is Tetranychus urticae (Two-Spotted Spider Mite). The experiment in a line: Tetranychus urticae bean leaf disc spray test. In kind it is in vivo. The note with it: foliar, 192 h, read-out: control (egg mortality, larval mortality, adult mortality). The source says: Bean leaf discs on agar in 24-well microtiter plates wer sprayed with test solutions at an application rate of 200 ppm. After drying, the leaf discs are infested with mite populations of mixed ages. 8 days later, discs are checked for egg mortality, larval mortality, and adult mortality. The following compounds gave 100% control: 1.001, 1.003, 1.004, 1.005, 1.007, 1.016, 1.021, 1.022, 1.023, and 1.024. The following compounds gave 80% control: 1.019, 1.025 and 1.027.

Data set [3] deals with Myzus persicae (Green Peach Aphid). Nature of the data set: Myzus persicae sunflower leaf disc spray test. Format: in vivo. The note with it: foliar, 144 h, read-out: control (mortality). As to the method:
Sunflower leaf discs were placed on agar in a 24-well microtiter plate and sprayed with test solutions at an application rate of 200 ppm. After drying, the leaf discs were infested with an aphid population of mixed ages. After an incubation period of 6 DAT, samples were checked for mortality. The following compounds gave 100% control: 1.001, 1.003, 1.004, 1.005, 1.006, 1.007, 1.008, 1.016, 1.017, 1.019, 1.021, 1.023 and 1.024. The following compounds gave 80% control: 1.002 and 1.026. The following compounds gave 50% control: 1.010, 1.018, 1.025 and 1.027.

For data set [4], the system named is Heliothis virescens (Tobacco Budworm). The experiment in a line: Heliothis virescens egg/larval test on artificial diet. The note with it: read-out: control (egg mortality, larval mortality, growth regulation). In kind it is in vivo. As to the method:
Eggs (0-24 h old) were placed in 24-well microtiter plate on artificial diet and treated with test solutions at an application rate of 200 ppm by pipetting. After an incubation period of 4 days, samples were checked for egg mortality, larval mortality, and growth regulation. The following compounds gave 100% control: 1.016, 1.020 and 1.024. The following compounds gave 80% control: 1.001, 1.003 and 1.022. The following compounds gave 50% control: 1.004, 1.007, and 1.014.

Setting [5] is: 200 ppm by pipetting, eggs 0-24 h old on artificial diet, 4 days incubation.

Broadly, the mortality is the share of the test organisms that died. Broadly, the melting point is the temperature, or range, at which the solid turns liquid.

Structures can show the parent of a compound that is named as a salt. Where two headings read alike, the source gives them in different places.

`CCC(Oc1cccc(C(F)(F)F)c1C)C1=NCCN1` (stereo not shown) [Compound 1.001, 2-[1-(2-methyl-3-trifluoromethyl-phenoxy)-propyl]-4,5-dihydro-1H-imidazole]: the mortality at 24 ppm in data set [1] amounted to 100%. In addition, the figures for the mortality at 200 ppm in data set [2], in data set [3] and in data set [4] were 100%, 100% and 80%, respectively.

Regarding `CCC(Oc1cccc(CF)c1C)C1=NCCN1` (stereo not shown) [Compound 1.022], in data set [1], the mortality at 24 ppm worked out at 100%. The figures for the mortality at 200 ppm in data set [2] and in data set [4] were 100% and 80%, respectively.

For the compound `CCC(Oc1cccc(C(F)(F)F)c1C(F)(F)F)C1=NCCN1` (stereo not shown), the melting point is 127 to 133 °C.

With `CCCC(Oc1cccc(C(F)(F)F)c1SC)C1=NCCN1` (stereo not shown) (as salt: maleate), the melting point lay within 90 to 109 °C.

Take `CCC(Oc1cccc(C(F)(F)F)c1CO)C1=NCCN1` (stereo not shown) (as salt: chloride): the melting point lay in the range of 150 to 157 °C.

As to `CCCC(Oc1cccc(C(F)(F)F)c1C)C1=NCCN1` (stereo not shown) [Compound 1.003], in data set [1], the mortality at 24 ppm worked out at 100%. Also, the mortality at 200 ppm in data set [2] is 100%; in data set [3], 100%; in data set [4] (setting [5]), 80%.

As to `Cc1c(OC(C2=NCCN2)C(C)C)cccc1C(F)F` (stereo not shown) [Compound 1.021], in data set [1], the mortality at 24 ppm was determined as 100%. For the same compound, the mortality at 200 ppm in data set [2] and in data set [3] was 100% in each case.

Turning to `CCC(Oc1cccc(C(F)F)c1C)C1=NCCN1` (stereo not shown) [Compound 1.023], the mortality at 24 ppm in data set [1] turned out to be 80%. For the same compound, the mortality at 200 ppm in data set [2] and in data set [3] was 100% in each case.

Consider `CCCC(Oc1cccc(C(F)F)c1C)C1=NCCN1` (stereo not shown) [Compound 1.016], for which the mortality at 24 ppm in data set [1] stood at 100%. Further, the mortality at 200 ppm in data set [2], in data set [3] and in data set [4] (setting [5]) was 100% each time.

On to `CCCCC(Oc1cccc(C(F)(F)F)c1C)C1=NCCN1` (stereo not shown) [Compound 1.004], for which the mortality at 200 ppm in data set [2] was found to be 100%; in data set [3] it was 100%; in data set [4] (setting [5]) it was 50%.

Consider `CCCCC(Oc1cccc(C(F)F)c1C)C1=NCCN1` (stereo not shown) [Compound 1.019], for which, in data set [1], the mortality at 24 ppm came out at 80%. The mortality at 200 ppm came to 80% in data set [2] and 100% in data set [3].

With `CCC(Oc1cccc(C(F)(F)F)c1C(F)F)C1=NCCN1` (stereo not shown) [Compound 1.002], in data set [3], the mortality at 200 ppm was found to be 80%.

As for `CCC(Oc1cccc(C(F)F)c1C1CC1)C1=NCCN1` (stereo not shown) [Compound 1.017], the mortality at 200 ppm in data set [3] was 100%.

The compound `CCc1c(OC(CC)C2=NCCN2)cccc1C(F)(F)F` (stereo not shown) (as salt: oxalate) showed a melting point of 185 to 187 °C.

On to `CCCC(Oc1cccc(C(F)(F)F)c1S(C)(=O)=O)C1=NCCN1` (stereo not shown), for which the melting point is 112 to 120 °C.

`CCCCC(Oc1cccc(CF)c1C)C1=NCCN1` (stereo not shown) [Compound 1.020]: the mortality at 24 ppm in data set [1] is 80%. Besides, the mortality at 200 ppm in data set [4] (setting [5]) stood at 100%.

With `CCCC(Oc1cccc(CF)c1C)C1=NCCN1` (stereo not shown) [Compound 1.024], in data set [1], the mortality at 24 ppm amounted to 100%. The mortality at 200 ppm in data set [2], in data set [3] and in data set [4] (setting [5]) was 100% throughout.

In the case of `Cc1c(OC(C2=NCCN2)C(C)C)cccc1C(F)(F)F` (stereo not shown) [Compound 1.005], the mortality at 24 ppm in data set [1] turned out to be 80%. The mortality at 200 ppm in data set [2] and in data set [3] was 100% in each case.
